# Test system: PC3 cells
# Assay: Real-time PCR of factor expression in PC3 cells treated with the ERRα inverse agonist XCT790 versus DMSO
# Type: cell-based, human
# Settings: XCT790 5 10^−7M, 24 hours, compared to DMSO control
# Protocol: PC3 cell line was obtained from the American Type Culture Collection (ATCC, Manassas, Va., USA). PC3 cells are routinely cultured in F12K nutrient mixture and DMEM medium (Gibco/Invitrogen; Carlsbad, Calif., USA) respectively supplemented with 10% (v/v) fetal bovine serum (FBS; Perbio/Thermo scientific; Rockford, Ill., USA) and 1% (v/v) penicillin/streptomycin (Invitrogen; Carlsbad, Calif., USA) at 37° C. in a 5% CO2 incubator.
# Human ERRα cDNA (WT) was obtained from mRNA extracted from BO2-FRT cells, by using RT-PCR with specific primers ((NM_004451.3) (Fradet et al, 2011). Amplimers were sequenced for verification. The pcDNA5/ERRα-WT (WT) and empty pcDNA5 (used as control (CT)) constructs were transfected using Transfast (Promega). For clonal selection, cells were cultured for 4 weeks in the presence of puromycin (1 μg/ml PC3) (Invitrogen). XCT790, an inverse agonist of ERRα was tested in vitro on PC3 cells at 5.10^−7M compare to DMSO for 24 h.
# Total RNA was extracted with Trizol reagent (Sigma) from PC3 cells, PC3 tumors, MC3T3-E1 cells. Samples of total RNA (2 μg) were reverse-transcribed using random hexamer (Promega) and the first strand synthesis kit of Superscript™ II (Invitrogen). Real-time RT-PCR was performed on a Roche Lightcycler Module (Roche) with primers specific for human and mouse. Real-time RT-PCR was carried out by using (SYBR Green; Qiagen,) on the LightCycler system on (Roche) according to the manufacturer's instructions with an initial step for 10 min at 95° C. followed by 40 cycles of 20 sec at 95° C., 10 sec at Tm (see Tables 1-2) and 10 sec at 72° C. We verified that a single peak was obtained for each product using the Roche software. Amplimers were all normalized to corresponding L32 values. Data analysis was carried out using the comparative Ct method: in real-time each replicate average genes CT was normalized to the average CT of L32 by subtracting the average CT of L32 from each replicate to give the ACT. Results are expressed as Log^-2 ΔΔCT with ΔΔCT equivalent to the ΔCT of the genes in PC3 (clone, XCT), tumors or treated MC3T3-E1 subtracting to the ACT of the endogenous control (empty vectors control for clones or tumors, DMSO for the XCT experiment and empty vectors control conditioned media treated MC3T3-E1 respectively).
# To confirm the regulation of the factors identified in PC3 over-expressing ERRα, we treat PC3 cells by the inverse agonist XCT790 (5 10^−7M) for 24 hours. XCT790 is able to block the interaction between ERRα and his co-activators PGC1a and b that will have as a consequence the inhibition of ERRα transcriptional activity.
structure (smiles),measurement,value
"COc1cc(/C=C(\C#N)C(=O)Nc2nnc(C(F)(F)F)s2)ccc1OCc1ccc(C(F)(F)F)cc1C(F)(F)F [XCT790, (2E)-3-(4-{[2,4-bis(trifluoromethyl)benzyl]oxy}-3-methoxyphenyl)-2-cyano-N-[5-(trifluoromethyl)-1,3,4-thiadiazol-2-yl]acrylamide]",CK (cathepsin K) expression (real-time PCR),no CK were found statistically down-regulated
same,ET1 expression (real-time PCR),identified as direct ERRα/PGC1 target genes
same,MCP1 expression (real-time PCR),statistically down-regulated
same,OPG expression (real-time PCR),statistically down-regulated
same,Runx2 expression (real-time PCR),statistically down-regulated
same,Wnt3a expression (real-time PCR),identified as direct ERRα/PGC1 target genes
same,Wnt5a expression (real-time PCR),identified as direct ERRα/PGC1 target genes
